Consider twelve compounds from patent publication US20260070945A1, “MACROCYCLIC IMMUNOMODULATORS” (Bristol-Myers Squibb Company, priority 2022, published 2026).

The structures appear in SMILES notation. Where a SMILES comes first, the peptide text is derived from it. Bridges are numbered along the chain shown (N, C = ends). [ ]: non-standard residue; d: D form. The star is where a group is joined. ξ: configuration not given here. Phe(4-COOH) = N[C@@H](Cc1ccc(C(=O)O)cc1)C(=O)O; Bip = N[C@@H](Cc1ccc(-c2ccccc2)cc1)C(=O)O; Phe(3-Me) = Cc1cccc(C[C@H](N)C(=O)O)c1; Val(3-OH) = CC(C)(O)[C@H](N)C(=O)O; 3Thi = N[C@@H](Cc1ccsc1)C(=O)O; Cha = N[C@@H](CC1CCCCC1)C(=O)O; Ile(3ξ) = CCC(C)[C@H](N)C(=O)O; Thr(3ξ) = CC(O)[C@H](N)C(=O)O; Carboxymethyl = O=C(O)C*; NMeA = CN[C@@H](C)C(=O)O; Aun = NCCCCCCCCCCC(=O)O; Dab = NCC[C@H](N)C(=O)O; AEEA = NCCOCCOCC(=O)O

T1 sequence (Q15116 25-288): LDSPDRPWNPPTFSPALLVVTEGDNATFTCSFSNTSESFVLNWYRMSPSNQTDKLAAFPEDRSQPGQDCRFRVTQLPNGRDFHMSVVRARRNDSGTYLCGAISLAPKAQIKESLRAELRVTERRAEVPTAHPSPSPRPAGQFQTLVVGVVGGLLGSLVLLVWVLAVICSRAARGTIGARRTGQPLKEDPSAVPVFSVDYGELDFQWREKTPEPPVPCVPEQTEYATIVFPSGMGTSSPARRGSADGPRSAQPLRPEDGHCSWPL

The experiment addresses T1, PD-1/PD-L1 interaction (PE-labeled human PD-L1-Ig binding to Jurkat cell line over-expressing human PD-1) (Homo sapiens, UniProt Q15116).
T1 construct: expressed in transfected cells; host or cells: Jurkat
The experiment is described as follows: Jurkat-PD-1 Cell Binding High-Content Screening Assay (CBA). The following applies: PE-labeled PD-L1-Ig 20 nM final, Jurkat-hPD-1 cells; read-out: Jurkat HPD1 PDL1 IC50. A digest of the protocol: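 Compound is added first to the PD-1-expressing Jurkat cells and held 2 h at 37 °C in serum-containing DMEM. The fluorescent PD-L1 fusion follows at 20 nM final for 1 h. Fixed, Hoechst-stained cells are then imaged for bound label.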
Regarding `Cc1cccc(C[C@@H]2NC(=O)[C@H](CC(=O)O)NC(=O)[C@H](Cc3ccc(C(=O)O)cc3)NC(=O)[C@H](Cc3ccsc3)NC(=O)CSC[C@@H](C(=O)N[C@@H](CCN)C(=O)NCCOCCOCC(=O)NCCCCCCCCCCC(=O)O)NC(=O)[C@H](CCC(=O)O)NC(=O)[C@H](C(C)(C)O)NC(=O)[C@H](CC3CCCCC3)NC(=O)[C@H](CCN)NC(=O)[C@@H](CC(C)C)NC(=O)[C@H](C)N(C)C(=O)[C@H](Cc3ccc(OCC(=O)O)cc3)NC(=O)[C@H](Cc3ccc(-c4ccccc4)cc3)NC(=O)[C@H](Cc3ccc(OCC(=O)O)cc3)NC2=O)c1` [Example 2505] ({CH2CO}-[3Thi][Phe(4-COOH)]D[Phe(3-Me)]Y(Carboxymethyl)[Bip]Y(Carboxymethyl)[NMeA][dL][Dab][Cha][Val(3-OH)]EC[Dab][AEEA][Aun]-OH; thioether N-14), the IC50 is 12.9 nM.

For `Cc1cccc(C[C@@H]2NC(=O)[C@H](CC(=O)O)NC(=O)[C@H](Cc3ccc(C(=O)O)cc3)NC(=O)[C@H](Cc3ccsc3)NC(=O)CSC[C@@H](C(=O)N[C@@H](CCN)C(=O)NCCOCCOCC(=O)NCCCCCCCCCCC(=O)O)NC(=O)[C@H](CCC(=O)O)NC(=O)[C@H](C(C)(C)O)NC(=O)[C@H](CC3CCCCC3)NC(=O)[C@H](CCN)NC(=O)[C@@H](CC(C)C)NC(=O)[C@H](C)N(C)C(=O)[C@H](Cc3ccc(C(=O)O)cc3)NC(=O)[C@H](Cc3ccc(-c4ccccc4)cc3)NC(=O)[C@H](Cc3ccc(C(=O)O)cc3)NC2=O)c1` [Example 2506] ({CH2CO}-[3Thi][Phe(4-COOH)]D[Phe(3-Me)][Phe(4-COOH)][Bip][Phe(4-COOH)][NMeA][dL][Dab][Cha][Val(3-OH)]EC[Dab][AEEA][Aun]-OH; thioether N-14), the 50% inhibitory concentration (IC50) was found to be 10.3 nM.

On to `Cc1cccc(C[C@@H]2NC(=O)[C@H](CC(=O)O)NC(=O)[C@H](Cc3ccc(OCC(=O)O)cc3)NC(=O)[C@H](C(C)O)NC(=O)CSC[C@@H](C(=O)N[C@@H](CO)C(=O)NCCOCCOCC(=O)NCCCCCCCCCCC(=O)O)NC(=O)[C@H](CCC(=O)O)NC(=O)[C@H](C(C)(C)O)NC(=O)[C@H](CC3CCCCC3)NC(=O)[C@H](CCN)NC(=O)[C@@H](CC(C)C)NC(=O)[C@H](C)N(C)C(=O)[C@H](Cc3ccc(OCC(=O)O)cc3)NC(=O)[C@H](Cc3ccc(-c4ccccc4)cc3)NC(=O)[C@H](Cc3ccc(OCC(=O)O)cc3)NC2=O)c1` (stereo partly drawn) [Example 2507] ({CH2CO}-[Thr(3ξ)]Y(Carboxymethyl)D[Phe(3-Me)]Y(Carboxymethyl)[Bip]Y(Carboxymethyl)[NMeA][dL][Dab][Cha][Val(3-OH)]ECS[AEEA][Aun]-OH; thioether N-14), for which the half-inhibitory concentration (IC50) is 393 nM.

As for `Cc1cccc(C[C@@H]2NC(=O)[C@H](CC(=O)O)NC(=O)[C@H](Cc3ccc(OCC(=O)O)cc3)NC(=O)[C@H](C(C)O)NC(=O)CSC[C@@H](C(=O)N[C@@H](CCN)C(=O)NCCOCCOCC(=O)NCCCCCCCCCCC(=O)O)NC(=O)[C@H](CCC(=O)O)NC(=O)[C@H](C(C)(C)O)NC(=O)[C@H](CC3CCCCC3)NC(=O)[C@H](CCN)NC(=O)[C@@H](CC(C)C)NC(=O)[C@H](C)N(C)C(=O)[C@H](Cc3ccc(OCC(=O)O)cc3)NC(=O)[C@H](Cc3ccc(-c4ccccc4)cc3)NC(=O)[C@H](Cc3ccc(OCC(=O)O)cc3)NC2=O)c1` (stereo partly drawn) [Example 2508] ({CH2CO}-[Thr(3ξ)]Y(Carboxymethyl)D[Phe(3-Me)]Y(Carboxymethyl)[Bip]Y(Carboxymethyl)[NMeA][dL][Dab][Cha][Val(3-OH)]EC[Dab][AEEA][Aun]-OH; thioether N-14), the half-maximal inhibitory concentration (IC50) turned out to be 40.6 nM.

Take `CCC(C)[C@@H]1NC(=O)[C@H](Cc2ccc(-c3ccccc3)cc2)NC(=O)[C@H](CC(C)C)NC(=O)[C@H](Cc2c[nH]c3ccccc23)NC(=O)[C@H](CC(=O)O)NC(=O)[C@H](Cc2ccc(OCC(=O)O)cc2)NC(=O)[C@H](C(C)O)NC(=O)CSC[C@@H](C(=O)N[C@@H](CCN)C(=O)NCCOCCOCC(=O)NCCCCCCCCCCC(=O)O)NC(=O)[C@H](CCC(=O)O)NC(=O)[C@H](C(C)(C)O)NC(=O)[C@H](CC2CCCCC2)NC(=O)[C@H](CCN)NC(=O)[C@@H](CC(C)C)NC(=O)[C@H](C)N(C)C1=O` (stereo partly drawn) [Example 2509] ({CH2CO}-[Thr(3ξ)]Y(Carboxymethyl)DWL[Bip][Ile(3ξ)][NMeA][dL][Dab][Cha][Val(3-OH)]EC[Dab][AEEA][Aun]-OH; thioether N-14): the IC50 was determined as 13 nM.

Take `CCC(C)[C@@H]1NC(=O)[C@H](Cc2ccc(-c3ccccc3)cc2)NC(=O)[C@H](CC(C)C)NC(=O)[C@H](Cc2c[nH]c3ccccc23)NC(=O)[C@H](CC(=O)O)NC(=O)[C@H](Cc2ccc(OCC(=O)O)cc2)NC(=O)[C@H](Cc2ccsc2)NC(=O)CSC[C@@H](C(=O)N[C@@H](CCN)C(=O)NCCOCCOCC(=O)NCCCCCCCCCCC(=O)O)NC(=O)[C@H](CCC(=O)O)NC(=O)[C@H](C(C)(C)O)NC(=O)[C@H](CC2CCCCC2)NC(=O)[C@H](CCN)NC(=O)[C@@H](CC(C)C)NC(=O)[C@H](C)N(C)C1=O` (stereo partly drawn) [Example 2510] ({CH2CO}-[3Thi]Y(Carboxymethyl)DWL[Bip][Ile(3ξ)][NMeA][dL][Dab][Cha][Val(3-OH)]EC[Dab][AEEA][Aun]-OH; thioether N-14): the half-inhibitory concentration (IC50) was determined as 18.1 nM.

Take `Cc1cccc(C[C@@H]2NC(=O)[C@H](CC(=O)O)NC(=O)[C@H](Cc3ccc(OCC(=O)O)cc3)NC(=O)[C@H](C(C)C)NC(=O)CSC[C@@H](C(=O)N[C@@H](CCN)C(=O)NCCOCCOCC(=O)NCCCCCCCCCCC(=O)O)NC(=O)[C@H](CCC(=O)O)NC(=O)[C@H](C(C)(C)O)NC(=O)[C@H](CC3CCCCC3)NC(=O)[C@H](CCN)NC(=O)[C@@H](CC(C)C)NC(=O)[C@H](C)N(C)C(=O)[C@H](Cc3ccc(C(=O)O)cc3)NC(=O)[C@H](Cc3ccc(-c4ccccc4)cc3)NC(=O)[C@H](Cc3ccc(C(=O)O)cc3)NC2=O)c1` [Example 2511] ({CH2CO}-VY(Carboxymethyl)D[Phe(3-Me)][Phe(4-COOH)][Bip][Phe(4-COOH)][NMeA][dL][Dab][Cha][Val(3-OH)]EC[Dab][AEEA][Aun]-OH; thioether N-14): the IC50 amounted to 16.1 nM.

For the compound `Cc1cccc(C[C@@H]2NC(=O)[C@H](CC(=O)O)NC(=O)[C@H](Cc3ccc(OCC(=O)O)cc3)NC(=O)[C@H](Cc3ccsc3)NC(=O)CSC[C@@H](C(=O)N[C@@H](CCN)C(=O)NCCCCCCCCCCC(=O)O)NC(=O)[C@H](CO)NC(=O)[C@H](C(C)(C)O)NC(=O)[C@H](CC3CCCCC3)NC(=O)[C@H](CCN)NC(=O)[C@@H](CC(C)C)NC(=O)[C@H](C)N(C)C(=O)[C@H](Cc3ccc(C(=O)O)cc3)NC(=O)[C@H](Cc3ccc(-c4ccccc4)cc3)NC(=O)[C@H](Cc3ccc(C(=O)O)cc3)NC2=O)c1` [Example 2513] ({CH2CO}-[3Thi]Y(Carboxymethyl)D[Phe(3-Me)][Phe(4-COOH)][Bip][Phe(4-COOH)][NMeA][dL][Dab][Cha][Val(3-OH)]SC[Dab][Aun]-OH; thioether N-14), the half-maximal inhibitory concentration (IC50) stood at 14.4 nM.

With `CCC(C)[C@@H]1NC(=O)[C@H](Cc2ccc(-c3ccccc3)cc2)NC(=O)[C@H](C(C)C)NC(=O)[C@H](Cc2c[nH]c3ccccc23)NC(=O)[C@H](CC(=O)O)NC(=O)[C@H](Cc2ccc(OCC(=O)O)cc2)NC(=O)[C@H](Cc2cnc[nH]2)NC(=O)CSC[C@@H](C(=O)N[C@H](C)C(=O)NCCOCCOCC(=O)NCCCCCCCCCCC(=O)O)NC(=O)[C@H](C(C)O)NC(=O)[C@H](C(C)(C)O)NC(=O)[C@H](CC2CCCCC2)NC(=O)[C@H](CCN)NC(=O)[C@@H](CC(C)C)NC(=O)[C@H](C)N(C)C1=O` (stereo partly drawn) [Example 2514] ({CH2CO}-HY(Carboxymethyl)DWV[Bip][Ile(3ξ)][NMeA][dL][Dab][Cha][Val(3-OH)][Thr(3ξ)]C[dA][AEEA][Aun]-OH; thioether N-14), the IC50 was 16.8 nM.

As for `CCC(C)[C@@H]1NC(=O)[C@H](Cc2ccc(-c3ccccc3)cc2)NC(=O)[C@H](CC(C)C)NC(=O)[C@H](Cc2c[nH]c3ccccc23)NC(=O)[C@H](CC(=O)O)NC(=O)[C@H](Cc2ccc(OCC(=O)O)cc2)NC(=O)[C@H](Cc2ccc(OCC(=O)O)cc2)NC(=O)CSC[C@@H](C(=O)N[C@@H](CCN)C(=O)NCCOCCOCC(=O)NCCCCCCCCCCC(=O)O)NC(=O)[C@H](Cc2cnc[nH]2)NC(=O)[C@H](C(C)(C)O)NC(=O)[C@H](CC2CCCCC2)NC(=O)[C@H](CCN)NC(=O)[C@@H](CC(C)C)NC(=O)[C@H](C)N(C)C1=O` (stereo partly drawn) [Example 2515] ({CH2CO}-Y(Carboxymethyl)Y(Carboxymethyl)DWL[Bip][Ile(3ξ)][NMeA][dL][Dab][Cha][Val(3-OH)]HC[Dab][AEEA][Aun]-OH; thioether N-14), the IC50 amounted to 3.1 nM.

Turning to `CC(C)C[C@@H]1NC(=O)[C@H](Cc2c[nH]c3ccccc23)NC(=O)[C@H](CC(=O)O)NC(=O)[C@H](Cc2ccc(OCC(=O)O)cc2)NC(=O)[C@H](Cc2ccc(OCC(=O)O)cc2)NC(=O)CSC[C@@H](C(=O)N[C@@H](CCN)C(=O)NCCOCCOCC(=O)NCCCCCCCCCCC(=O)O)NC(=O)[C@H](CCC(=O)O)NC(=O)[C@H](C(C)(C)O)NC(=O)[C@H](CC2CCCCC2)NC(=O)[C@H](CCN)NC(=O)[C@@H](CC(C)C)NC(=O)[C@H](C)N(C)C(=O)[C@H](CCC(N)=O)NC(=O)[C@H](Cc2ccc(-c3ccccc3)cc2)NC1=O` [Example 2516] ({CH2CO}-Y(Carboxymethyl)Y(Carboxymethyl)DWL[Bip]Q[NMeA][dL][Dab][Cha][Val(3-OH)]EC[Dab][AEEA][Aun]-OH; thioether N-14), the IC50 was 20.7 nM.

With `CC(C)C[C@@H]1NC(=O)[C@H](Cc2c[nH]c3ccccc23)NC(=O)[C@H](CC(=O)O)NC(=O)[C@H](Cc2ccc(OCC(=O)O)cc2)NC(=O)[C@H](Cc2ccc(OCC(=O)O)cc2)NC(=O)CSC[C@@H](C(=O)N[C@@H](CCN)C(=O)NCCOCCOCC(=O)NCCOCCOCC(=O)NCCCCCCCCCCC(=O)O)NC(=O)[C@H](CCC(=O)O)NC(=O)[C@H](C(C)(C)O)NC(=O)[C@H](CC2CCCCC2)NC(=O)[C@H](CCN)NC(=O)[C@@H](CC(C)C)NC(=O)[C@H](C)N(C)C(=O)[C@H](CCC(N)=O)NC(=O)[C@H](Cc2ccc(-c3ccccc3)cc2)NC1=O` [Example 2517] ({CH2CO}-Y(Carboxymethyl)Y(Carboxymethyl)DWL[Bip]Q[NMeA][dL][Dab][Cha][Val(3-OH)]EC[Dab][AEEA][AEEA][Aun]-OH; thioether N-14), the IC50 was determined as 30 nM.
